Experimental data as given in patent publication US7910579B2, “Benzoxazole derivatives” (Tohoku University, priority 2006, dated 2011).
Where two headings read alike, the source gives them in different places.

Experiments:
[1] = Evaluation of Brain-Penetration and Bone-Seeking Properties of the Labeled Compound in Mouse; assay type: in vivo; settings: for Brain radioactivity / blood radioactivity / bone radioactivity: male ICR mouse, intravenous; for bone radioactivity: thighbone; for Bone-seeking property (bone accumulation) / Washout from brain: mouse; for Bone-seeking property (bone accumulation): 2 to 60 minutes after intravenous injection; for Washout from brain: compared with [^18F] BF-227
Procedure: Separated HPLC fractions containing [^18F] THK-702, [^18F] THK-761, [^18F] THK-763 or [^18F] BF-227 obtained by above mentioned synthesis of label were diluted with distilled water (about 20 mL), loaded thereon Sep-PaktC18 cartridge (produced by Waters Corporation). And the cartridge was washed by distilled water (5 to 10 mL), and labeled compound by EtOH (3 to 5 mL). A proper amount of 5% polysorbate 80-ethanol solution was added in the EtOH eluate and solvent was distilled away by a rotary evaporator with heating at 80° C. Obtained residue (mixture of the label compound and polysorbate 80) was dissolved in saline to prepare the labeled compound-containing saline. The radiochemical purity of chemical after the preparation was 95% or more.
Saline containing [^18F] BF-227, [^18F] THK-702, [^18F] THK-761 or [^18F] THK-763 was administered by intravenous injection through the tail vein of male ICR mouse (6 to 7 week), and brain-penetration and bone-seeking properties of each labeled compound was evaluated in the terms of seeking property of radioactivity in brain-tissue and bone tissue at 2, 30, 60 minutes after the injection.
The radiochemical purity of the saline containing the labeled compound used in the present invention was 95% or more, and the specific radioactivity was 18.5 to 148 GBq/μmol. 1.11 to 2.22 Mbq of the labeled compound per mouse was administrated. In evaluation of seeking property of radioactivity, the proportion of radioactivity in unit weight of evaluated tissue to all dosed radioactivity (% Injected Dose/g of tissue; % ID/g) was used as an index. Gamma counter (1480 WIZARD, produced by PerkinElmer, Inc.) was used in the measurement of radioactivity. Experimental procedures will be explained as follows. The labeled compound was administered by intravenous injection through the tail vein, 2, 30 and 60 minutes after the injection, cervical dislocation of the mouse was conducted under ether anesthesia, and blood was collected from heart rapidly. And then, whole brain (containing cerebellum and brain-stem) and thighbone of mouse were extracted. Moreover, radioactivity and the tissue weight of each sample were measured, the resulting data was used for calculating % ID/g.

Amyloid β protein 1-40 = target: T1, Amyloid β protein 1-40 (Homo sapiens, UniProt P05067); test: Fluorescence Congo Red Method; assay type: binding; settings: compound 10 μM, amyloid β protein 5 μM; for activity at 10 µM: 1 h
T1 construct: Amyloid β protein 1-40 (bought from Peptide Laboratory); purchased Peptide Laboratory
Procedure: Next described is a screening method for the compounds of the invention. Some of the compounds of the invention could not be screened according to a Thioflavin T method, since their fluorescence wavelength overlaps with that of Thioflavin T. For such compounds, the following novel screening method was introduced. (1) Amyloid β protein 1-40 (bought from Peptide Laboratory) was dissolved in a phosphate buffer (pH 7.4) and left at 37° C. for 4 days. (2) 50 μl of Congo red dissolved in the buffer was applied to a 96-well microplate (final concentration, 0.1, 0.3, 1 μM). (3) 100 μl of amyloid β protein was added to it (final concentration 5 μM), and left as such for 30 minutes. (4) 100 μl of a test compound dissolved in the buffer was added to it (final concentration, 10 μM, and left as such for 60 minutes. (5) Using a fluorescence microplate reader (Spectra Max 190 by Molecular Device), the sample was analyzed at the optimum exciting wavelength and the test wavelength that had been previously determined. (6) The fluorescence intensity in the presence of the test compound, amyloid β protein and Congo red is represented by A; that in the presence of the test compound and Congo red is by B; that in the presence of the test compound and amyloid β protein is by C; and that in the presence of only the test compound is by D. The β structure recognition of the test compound is computed according to the following formula: β structure recognition (%) of test compound={(A−B)/(C−D)}×100. (7) It may be said that the test compound having a higher β structure recognition percentage may have higher binding specificity to amyloid β protein.

[2] = system: histidine-requiring Salmonella typhimurium TA100 and TA98 strains; test: Mutagenicity Test (reverse mutation test); assay type: cell-based; settings: for Relative activity (mutagenicity): irrespective of the absence or presence of S9mix; for Relative Activity in the presence of S9Mix / Relative Activity in the absence of S9Mix: reverse mutation test
Procedure: In view of their use, it is desirable that the compounds of the invention have no mutagenicity or have little mutagenicity to a level causing no problem. For investigating the gene mutagenesis of the compounds of the invention, herein carried out was a reverse mutation test with histidine-requiring Salmonella typhimurium TA100 and TA98 strains. Two tests were carried out. One is a test for dose determination test; and the other is for mutagenicity.
The test methods and the mutagenicity of the compounds of the invention are mentioned below. In the dose determination test, six doses of 0.160, 0.800, 4.00, 20.0, 100 and 500 μg/plate (common ratio 5) were tried.
As a result of the dose determination test, when the mutagenicity of the test compound was admitted, then the actual test for mutagenicity was carried out, using the dose capable of giving an accurate dose-reaction curve. When no mutagenicity of the test compound was admitted in the dose determination test and when the growth inhibition of the test cells was admitted therein, then the dose to present the growth inhibition was taken as the maximum dose; and when the growth inhibition was not admitted, then a dose of 5000 μg/plate was taken as the maximum dose. With that, the actual test for mutagenicity was carried out on the level of 6 doses (common ratio 2).
First, a test compound was dissolved or suspended in DMSO, then diluted in order to prepare test compound liquids having a varying concentration.
100 μl of a test compound liquid or a negative control (DMSO) solution was put into a sterilized test tube. Then, for the case in the absence of a metabolic activation system (−S9mix), 500 μl of 0.1 mol/liter sodium-phosphate buffer (pH 7.4) was added to it; and for the case in the presence of a metabolic activation system (+S9mix), 500 μl of S9mix was added to it.
Next, 100 μl of the test strain suspension that had been cultivated with shaking at 37° C. for 8 hours was added to it, and preincubated in a shaking thermostat at 37° C. for 20 minutes. After shaken, 2 ml of top agar was added to it, and the contents were mixed.
Next, the mixture was poured onto a minimal glucose agar plate medium (plate) and spread uniformly thereon, then the top agar was solidified, and the plate was transferred into a thermostat and incubated at 37° C. for 48 hours.
Then, the number of the colonies grown through reverse mutation was counted.
For counting it, […]. After area correction and miss-counting correction, the number of the colonies was computed. When the colony analyzer could not be used owing to the deposition of the test compound or the cell growth inhibition, then the number of the colonies was counted with the naked eye.
In case where the number of the colonies through reverse mutation increased two times or more that of the negative control and where the dose dependency or the reproducibility of the increase was admitted, then the tested sample was decided as positive. When the sample was is decided as positive, then the relative activity that indicates the relative comparative value of the intensity of the mutagenicity of the test compound was obtained according to the following formula: Relative Activity={(number of colonies per plate having the concentration)−(number of colonies per negative control plate)}/the value of concentration (mg/plate).

T1 sequence (P05067 672-711): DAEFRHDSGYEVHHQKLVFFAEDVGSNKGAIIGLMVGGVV

## CN(C)c1ncc(/C=C/c2nc3ccc(OC(CO)CF)cc3o2)s1 (stereo not shown) [[^18F]THK-763]
[1]; 2 min
  Brain radioactivity: 4.64 % ID/g
  blood radioactivity: 3.65 % ID/g
  bone radioactivity: 1.84 % ID/g
[1]; 30 min
  Brain radioactivity: 0.53 % ID/g
  blood radioactivity: 1.19 % ID/g
  bone radioactivity: 0.88 % ID/g
[1]; 60 min
  Brain radioactivity: 0.28 % ID/g
  blood radioactivity: 0.64 % ID/g
  bone radioactivity: 1.38 % ID/g
[1]
  Bone-seeking property (bone accumulation): have not found
  Washout from brain: excellent characteristics in washout from brain more than [^18F] BF-227

## CN(C)c1ncc(C=Cc2nc3ccc(OCCF)cc3o2)s1 [[^18F]BF-227, 2-[2-(2-dimethylaminothiazol-5-yl)ethenyl]-6-(2-fluoroethoxy)benzoxazol, reference compound]
[1]; 2 min
  Brain radioactivity: 6.05 % ID/g
  blood radioactivity: 2.93 % ID/g
  bone radioactivity: 1.59 % ID/g
[1]; 30 min
  Brain radioactivity: 1.91 % ID/g
  blood radioactivity: 2.14 % ID/g
  bone radioactivity: 4.38 % ID/g
[1]; 60 min
  Brain radioactivity: 1.67 % ID/g
  blood radioactivity: 2.09 % ID/g
  bone radioactivity: 7.04 % ID/g
[1]
  Bone-seeking property (bone accumulation): significant time-dependent bone-seeking property after the injection has been found

## OCC(CF)Oc1ccc2nc(/C=C/c3cnc(N4CCSCC4)s3)oc2c1 (stereo not shown) [THK-767, (E)-6-[(1-fluoromethyl-2-hydroxy)ethoxy]-2-[2-(2-thiomorpholinothiazol-5-yl)ethenyl]benzoxazole]
Amyloid β protein 1-40; Congo red 0.1 μM, read-out: Binding Percentage of Compound in the presence of 0.1 μM CR
  activity at 10 µM: 60%
Amyloid β protein 1-40; Congo red 0.3 μM, read-out: Binding Percentage of Compound in the presence of 0.3 μM CR
  activity at 10 µM: 29.9%
Amyloid β protein 1-40; Congo red 1 μM, read-out: Binding Percentage of Compound in the presence of 1 μM CR
  activity at 10 µM: 15.9%

## CC1(C)c2ccccc2N2CCC(=O)NC21/C=C/c1ccc(N2CCOCC2)cc1 (stereo not shown) [THK-336]
[2]
  Relative activity (mutagenicity): minus
  Relative Activity in the presence of S9Mix: minus
  Relative Activity in the absence of S9Mix: minus

## Cc1ccc2c(c1)sc(-c1ccc(N(C)C)cc1)[n+]2C.[Cl-] [Thioflavin T, reference compound]
Amyloid β protein 1-40; Congo red 0.1 μM
  Binding Percentage of Compound in the presence of 0.1 μM CR: 49.4%
Amyloid β protein 1-40; Congo red 0.3 μM
  Binding Percentage of Compound in the presence of 0.3 μM CR: 22.3%
Amyloid β protein 1-40; Congo red 1 μM
  Binding Percentage of Compound in the presence of 1 μM CR: 9.3%

## N#CC(C#N)=Cc1ncc(/C=C/c2nc3ccc(OCC(CO)CF)cc3o2)s1 (stereo not shown) [THK-683, (E)-2-[2-(2,2-dicyano-ethenylthiazol-5-yl)ethenyl]-6-[(2-fluoromethyl-3-hydoxy)propoxy]benzoxazole]
[2]
  Relative activity (mutagenicity): minus
  Relative Activity in the presence of S9Mix: minus
  Relative Activity in the absence of S9Mix: minus

## CNc1ncc(/C=C/c2nc3ccc(OC(CO)CF)cc3o2)s1 (stereo not shown) [[^18F]THK-761]
[1]; 2 min
  Brain radioactivity: 1.67 % ID/g
  blood radioactivity: 3.16 % ID/g
  bone radioactivity: 1.36 % ID/g
[1]; 30 min
  Brain radioactivity: 0.22 % ID/g
  blood radioactivity: 0.78 % ID/g
  bone radioactivity: 0.88 % ID/g
[1]; 60 min
  Brain radioactivity: 0.13 % ID/g
  blood radioactivity: 0.34 % ID/g
  bone radioactivity: 0.95 % ID/g
[1]
  Bone-seeking property (bone accumulation): have not found
  Washout from brain: excellent characteristics in washout from brain more than [^18F] BF-227

## OCC(CF)Oc1ccc2nc(/C=C/c3cnc(N4CCOCC4)s3)oc2c1 (stereo not shown) [[^18F]THK-702]
[1]; 2 min
  Brain radioactivity: 4.15 % ID/g
  blood radioactivity: 3.34 % ID/g
  bone radioactivity: 1.95 % ID/g
[1]; 30 min
  Brain radioactivity: 0.53 % ID/g
  blood radioactivity: 1.06 % ID/g
  bone radioactivity: 0.92 % ID/g
[1]; 60 min
  Brain radioactivity: 0.35 % ID/g
  blood radioactivity: 0.67 % ID/g
  bone radioactivity: 1.16 % ID/g
[1]
  Bone-seeking property (bone accumulation): have not found
  Washout from brain: excellent characteristics in washout from brain more than [^18F] BF-227
